Data set [1] relates to HCV type 1a. The data set can be described thus: inhibitory activity on HCV type 1a (statement only, no method). The conditions noted are these: in words.
Data set [2] deals with HCV type 1b. The data set can be described thus: inhibitory activity on HCV type 1b (statement only, no method). The conditions noted are these: in words.
Data set [3] in a line: blood concentration when administered to an animal (statement only, no method). The data set is classed as in vivo. The conditions noted are these: when administered as a pharmaceutical agent to an animal; in words.
For data set [4], the target named is T1, HCV polymerase (Hepatitis C virus genotype 1b, UniProt P26663).
T1 construct: a region encoding NS5B (591 amino acids; J Virol 1991 Mar, 65(3), 1105-13) was amplified by PCR; 6 His (N); made in house; host or cells: Escherichia coli
The data set is described as follows: biochemical. To be noted: read-out: HCV polymerase inhibitory activity IC50.

SMILES strings stand for the structures.

As usually defined, the IC50 is the concentration that gives 50% inhibition. A word on the melting point: it is the temperature, or range, at which the solid turns liquid.

T1 sequence (P26663 2420-3010): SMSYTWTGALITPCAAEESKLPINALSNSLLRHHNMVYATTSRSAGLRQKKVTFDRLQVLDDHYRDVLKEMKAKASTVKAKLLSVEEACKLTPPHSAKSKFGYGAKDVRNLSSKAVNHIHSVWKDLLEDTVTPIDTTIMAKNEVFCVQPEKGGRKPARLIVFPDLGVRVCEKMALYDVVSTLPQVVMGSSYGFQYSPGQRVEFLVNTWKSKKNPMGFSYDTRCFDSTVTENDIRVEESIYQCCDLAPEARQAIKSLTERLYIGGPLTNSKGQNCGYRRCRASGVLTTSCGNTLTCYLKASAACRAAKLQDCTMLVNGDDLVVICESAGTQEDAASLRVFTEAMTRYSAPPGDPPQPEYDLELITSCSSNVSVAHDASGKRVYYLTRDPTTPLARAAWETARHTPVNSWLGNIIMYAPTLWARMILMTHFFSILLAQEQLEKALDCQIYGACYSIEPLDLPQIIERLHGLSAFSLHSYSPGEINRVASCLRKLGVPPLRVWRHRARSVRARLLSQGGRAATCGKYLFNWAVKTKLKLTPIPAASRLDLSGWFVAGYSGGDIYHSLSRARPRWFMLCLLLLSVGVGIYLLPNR

On to `Cl.O=C(O)c1ccc2c(c1)nc(-c1ccc(OCc3cc(N4CCCC4=O)ccc3-c3ccc(Cl)cc3)cc1F)n2C1CCCCC1` [2-{4-[2-(4-chlorophenyl)-5-(2-oxopyrrolidin-1-yl)benzyloxy]-2-fluorophenyl}-1-cyclohexylbenzimidazole-5-carboxylic acid hydrochloride], for which, in data set [1], the “inhibitory activity on HCV type 1a” value is listed as “high inhibitory activity”. Moreover, the “inhibitory activity on HCV type 1b” value in data set [2] is “high inhibitory activity”. In addition, the blood concentration entry in data set [3] is listed as “high blood concentration”.

Take `O=C(O)c1ccc2c(c1)nc(-c1ccc(Oc3cccc(OCc4ccncc4)c3)cc1)n2C1CCCCC1` [Example 30, 1-cyclohexyl-2-{4-[3-(4-pyridylmethoxy)phenyloxy]-phenyl}benzimidazole-5-carboxylic acid]: the melting point lay within 235 to 237 °C. In addition, the IC50 in data set [4] was found to be 52 nM.

Molecule `O=C(O)c1ccc2c(c1)nc(-c1ccc(Oc3cccc(Br)c3)cc1)n2C1CCCCC1` [Example 2, 2-[4-(3-bromophenoxy)phenyl]-1-cyclohexylbenzimidazole-5-carboxylic acid] registered a melting point of 255 to 256 °C. Moreover, the half-maximal inhibitory concentration (IC50) in data set [4] came out at 79 nM.

Regarding `O=C(O)c1ccc2c(c1)nc(-c1ccc(Oc3cccc(-c4cccc(Cl)c4)c3)cc1)n2C1CCCCC1` [Example 26, 2-{4-[3-(3-chlorophenyl)phenoxy]phenyl}-1-cyclohexylbenzimidazole-5-carboxylic acid], the melting point is 253 to 254 °C. For the same molecule, the IC50 in data set [4] is 33 nM.

In turn, `Cc1nc(-c2ccc(F)cc2)c(COc2ccc(-c3nc4cc(C(=O)O)ccc4n3C3CCCCC3)cc2)s1` [Example 17, 1-cyclohexyl-2-{4-[{4-(4-fluorophenyl)-2-methyl-5-thiazolyl}methoxy]phenyl}benzimidazole-5-carboxylic acid] came in with a melting point of 196 to 198 °C. Moreover, the IC50 in data set [4] was determined as 47 nM.

`O=C(O)c1ccc2c(c1)nc(-c1ccc(OC(c3cccc(F)c3)c3cccc(F)c3)cc1F)n2C1CCCCC1` [Example 20, 2-{4-(bis[3-fluorophenyl]methoxy)-2-fluorophenyl}-1-cyclohexylbenzimidazole-5-carboxylic acid] registered a melting point of 242 to 243 °C. The IC50 in data set [4] was found to be 42 nM.

As to `COc1ccc(-c2ccc(Cl)cc2)c(COc2ccc(-c3nc4cc(C(=O)O)ccc4n3C3CCCCC3)cc2)c1` [Example 9, 2-{4-[2-(4-chlorophenyl)-5-methoxybenzyloxy]phenyl}-1-cyclohexylbenzimidazole-5-carboxylic acid], the melting point lay within 248 to 249 °C. Further, in data set [4], the IC50 was found to be 19 nM.

Values taken from patent US20040082635A1, “Fused cyclic compounds and medicinal use thereof” (priority 2001, published 2004).
